This is an account of results in the supplement of paper PMC10307832.

Assay in all cases: relative viability (nuclei count vs DMSO), 5 days (fraction); higher = more cells survive
Compound in one experiment: CC1CC(=O)N(C2=CN=C(N=C2N1C3CCCC3)NC4=C(C=C(C=C4)C(=O)NC5CCN(CC5)C)OC)C [NPK76-II-72-1]
In short, it runs like this:
(§1)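 MetaXpress counted nuclei in 4× images of lung cancer cell lines that had been fixed, permeabilised and Hoechst-stained in one step. Before that, cells in 1536-well plates were kept overnight at 37 °C, pinned with five √10-spaced library-drug doses on vehicle-anchored plates, and cultured 5 days without medium change. Viability takes treated-well nuclei over vehicle-well nuclei and uses the median across plates. Plates were accepted only at control CV below 25% and at least one doubling.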

Compound in a further experiment: CC[C@@H]1C(=O)N(C)c2cnc(Nc3ccc(C(=O)NC4CCN(C)CC4)cc3OC)nc2N1C1CCCC1 [BI-2536]
Put shortly: as §1

Compound in experiment [1]: CC1CC(=O)N(C2=CN=C(N=C2N1C3CCCC3)NC4=C(C=C(C=C4)C(=O)NC5CCN(CC5)C)OC)C [NPK76-II-72-1] + CC(=O)Nc1cccc(-n2c(=O)n(C3CC3)c(=O)c3c(Nc4ccc(I)cc4F)n(C)c(=O)c(C)c32)c1 [Trametinib] (partner 0.02 µM)
In short, it runs like this: (§2)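 Cells from lung cancer lines were seeded into 1536-well plates and, one day later, dosed by pin tool. Treatments were either a single drug or a fixed dose of an anchor drug with five library-drug doses (not always all listed) in √10 steps. After 5 days, nuclei were stained in a one-step fixation (final 0.05% Triton X-100, 1% formaldehyde, 1 ug/ml Hoechst) and counted on 4× images, and relative viability is the treated-to-vehicle nuclei ratio, as the median of duplicate plates.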

Compound in experiment [2]: CC1CC(=O)N(C2=CN=C(N=C2N1C3CCCC3)NC4=C(C=C(C=C4)C(=O)NC5CCN(CC5)C)OC)C [NPK76-II-72-1] + COc1cc2c(Oc3ccc(NC(=O)C4(C(=O)Nc5ccc(F)cc5)CC4)cc3F)ccnc2cc1OCCCN1CCOCC1 [Foretinib] (partner 0.25 µM)
In short, it runs like this: as §2

As for UMC-11, the relative viability was 0.93 in the experiment with NPK76-II-72-1 (0.01 µM); 0.95 in the experiment with NPK76-II-72-1 (0.03162 µM); 1.01 in the experiment with NPK76-II-72-1 (0.1 µM); 0.909 with NPK76-II-72-1 (0.3162 µM); 0.931 with NPK76-II-72-1 (1 µM); 0.923 with BI-2536 (0.01 µM). The relative viability with BI-2536 (0.03162 µM) is 0.624; in the experiment with BI-2536 (0.1 µM), 0.175; with BI-2536 (0.3162 µM) it was 0.205; with BI-2536 (1 µM), 0.2; in experiment [1] (first compound 0.01 µM), 0.692; in experiment [1] (first compound 0.03162 µM), 0.629. Further, the relative viability was found to be 0.75 in experiment [1] (first compound 0.1 µM); 0.484 in experiment [1] (first compound 0.3162 µM); 0.812 in experiment [1] (first compound 1 µM); 0.988 in experiment [2] (first compound 0.01 µM); 1.06 in experiment [2] (first compound 0.03162 µM); 1.06 in experiment [2] (first compound 0.1 µM). Besides, the relative viability in experiment [2] (first compound 1 µM) came out at 0.95.
